Experimental data taken from patent publication US20130011376A1, “Methods for Enhancing Natural Killer Cell Proliferation and Activity” (GAMIDA CELL LTD., priority 2009, published 2013).

Key:
[1] = system: bone marrow derived CD56+ cells; experiment: Proliferation and subsets of bone marrow derived CD56+ cells in culture; format: cell-based, human
Procedure: Bone marrow (BM) and peripheral blood (PB) cells were layered on a Ficoll-Hypaque gradient (1.077 g/mL; Sigma), and centrifuged at 800×g for 30 min. The mononuclear cells in the interface layer were collected and washed three times in phosphate-buffered saline (PBS) (Biological Industries, Israel) containing 0.5% HSA.
Cord blood (CB), bone marrow (BM) or peripheral blood (PB) cells were layered on a Ficoll-Hypaque gradient (1.077 g/mL; Sigma), and centrifuged at 800×g for 30 minutes for separation of the mononuclear cells. The cells in the interface layer were collected and washed three times in phosphate-buffered saline (PBS) (Biological Industries, Israel) containing 0.5% HSA. To purify the CD56+ cells, the mononuclear cell fraction was subjected to two cycles of immunomagnetic bead separation, using a “MiniMACS or CliniMACS CD56 progenitor cell isolation kit” (Miltenyi Biotec Bergisch, Gladbach, Germany), according to the manufacturer's recommendations. Briefly, CD56+ cells are reacted with CD56+ specific magnetic immunobeads, separated and with a magnetic separator, and purified from unbound cells by washing. The purity of the CD56+ population thus obtained is approximately 92%, as evaluated by flow cytometry.
2. Purified CD56+ or CD56+CD3− cells from total nuclear or mononuclear cells or from the fraction depleted from CD34+ or CD133+ cells were cultured in culture bags, T-Flasks or 24 well plates at a concentration of 1-100×10^4 cells/ml in MEMα/10% FCS or CellGro SCGM (Cell Genix)/5% Human Serum/LiforCell® FBS Replacement (Lifeblood Products) containing the following human recombinant cytokines:, interleukin-2 (IL-2) (5-50 ng/ml), interleukin-15 (IL-15), FLT-3 or SCF or FLT3 and SCF or IL-2 and IL-15 or IL-2 only (Perpo Tech, Inc., Rocky Hill, N.J., USA), with or without nicotinamide, and incubated at 37° C. in a humidified atmosphere of 5% CO2 in air. The cultures were topped up once or twice a week with the same volume of fresh medium containing growth factors with or without nicotinamide. Eventually cultures can be supplemented once or several times a week with IL-2 and or IL-2 and IL-15. To estimate the number of cells in culture, cell samples were stained with trypan blue for counting. At various time points, samples were taken for FACS analysis to assay the relative fractions of NK cells, CD56+CD3−, CD56+CD3+, CD34+CD56+, CD56+CD16+ and/or CD56+ NKG2A cells.
(§1) To determine total number of cells on day 7, 14 and 21, the cell count/ml was multiplied by the volume of the culture medium. In order to determine the number of NK cells in culture, the total number of cells in culture was multiplied by the percent of CD56+/CD3− cells measured with the FACS on days 7, 14 or 21. To measure fold expansion, total number of NK cells on days 7, 14 and 21 was divided by total number of NK cells seeded in culture on day-0.
The cells were washed with a PBS solution containing 1% BSA, and stained (at 4° C. for 30 min) with fluorescein isothiocyanate (FITC)- or phycoerythrin (PE)-conjugated antibodies or allophycocyanin (APC). The cells were then washed in the above buffer and analyzed using a FACScalibur® flow cytometer (Becton Dickinson, San Jose, Calif., USA). The cells were passed at a rate of up to 1000 cells/second, using a 488 nm or 661 nm argon laser beam as the light source for excitation. Emission of 10^4 cells was measured using logarithmic amplification, and analyzed using the CellQuest software (Becton Dickinson). Cells stained with FITC, PE and APC-conjugated isotype control antibodies were used to determine background fluorescence.

[2] = system: peripheral blood NK (T-cell depleted) cells; experiment: Expansion of CD3+ or CD3+/CD19+ depleted peripheral blood NK cells in culture bags; format: cell-based, human
Procedure: For depletion procedure, total nuclear cells from umbilical cord blood (CB), bone marrow (BM) or peripheral blood (PB) cells were layered on a Ficoll-Hypaque gradient (1.077 g/mL; Sigma), and centrifuged at 800×g for 30 minutes for separation of the mononuclear cells. The cells in the interface layer were collected and washed three times in phosphate-buffered saline (PBS) (Biological Industries, Israel) containing 0.5% HSA. Optionally, cells are not separated on the Ficoll-Hypaque gradient but washed three times in phosphate-buffered saline (PBS) (Biological Industries) containing 0.5% HSA (“total mononuclear fraction”). CD3 cells were depleted using the CD3 cell isolation kit (Miltenyi Biotec Bergisch, Gladbach, Germany) and the entire CD3 negative cell fraction was cultured. Optionally, CD19 cells were also depleted using the CD19 cell isolation kit (Miltenyi Biotec Bergisch, Gladbach, Germany) and the CD3/CD19 negative (CD3/CD19 depleted) cell fraction was cultured. Optionally, RosetteSep Human CD3+ Cell Depletion Cocktail (Stem Cell Technologies, RosestteSep, Cat. No. 15661)] was used for CD3 depletion and the entire CD3 negative cell fraction was cultured. After negative depletion the cells were counted and characterized by FACS analysis.
3. CD3+ depleted, or CD3+/CD19+ depleted mononuclear cell fraction from PB, BM and CB were cultured in culture bags, T-Flasks or 24 well plates at a concentration of 1−1000×10^4 cells/ml in MEMα/10% FCS or CellGro SCGM (Cell Genix)/5% Human Serum/LiforCell® FBS Replacement (Lifeblood Products) containing the following human recombinant cytokines: interleukin-2 (IL-2) or and interleukin-15 (IL-15), with or without FLT-3 or SCF or FLT3 and SCF (5-50 ng/ml) (Perpo Tech, Inc., Rocky Hill, N.J., USA), all combinations, with or without nicotinamide and incubated at 37° C. in a humidified atmosphere of 5% CO2 in air. The cultures were topped weekly or twice a week with the same volume of fresh medium containing growth factors with or without nicotinamide. Cultures were later supplemented once or several times a week with IL-2 and or IL-2 and IL-15. To estimate number of cells in culture, cell samples were counted following staining with trypan blue. At various time points, samples are taken to FACS analysis to assay the relative fractions of NK cells, CD56+CD3−, CD56+CD3+, CD34+CD56+, CD56+CD16+ and/or CD56+ NKG2A cells.
In order to calculate the number of NK cells on day 0, the total number of cells seeded on day 0 was multiplied by the percent of CD56+/CD3− cells measured by the FACS on day 0.
as §1

[3] = 1 mM, 2.5 mM and 5 mM nicotinamide, 7 days

## NC(=O)c1cccnc1 [nicotinamide]
[1]; [3]
  proliferation of CD56+CD3+ NKT cells: decreased proliferation
  proliferation of the CD56+CD3- NK cell subset: enhancement of proliferation
[1]; 2.5 mM and 5 mM nicotinamide, 7 days
  proliferation of CD56+CD16+ NK cells: most enhanced
[1]; 2.5 mM nicotinamide
  increase of NK cell proliferation between 14 and 21 days: 50%
[1]; 2.5 mM nicotinamide, 14 and 21 days
  fraction of NK cells displaying the CD56+CD16+ phenotype vs cytokines alone: significant increase
[1]; 2.5 mM nicotinamide, 14 days
  proliferation of NK cells (fold increase): 8 fold increase
[1]; 2.5 mM nicotinamide, 21 days
  proliferation of NK cells (fold increase): 12 fold increase
[1]; nicotinamide treated cultures, 21 days
  CD56+CD3- NK cells among cultured cells (dominance over CD56+CD3+ NKT cells): greater than 80%
[2]; 2.5 mM and 5 mM nicotinamide, after 14 and 21 days, IL-2 or IL-2+IL-15
  NK expansion relative to control cultures without nicotinamide: significantly higher
[2]; 2.5 mM and 5 mM, 21 days, seeding 2-, 5-, and 10x10^5 cells
  CD56+CD3- NK cell proliferation: profound enhancement
[2]; 2-3 weeks in culture with nicotinamide, seeded 2-10% NK cells
  NK (CD56+CD3-) cells among cells in culture: more than 90%
[2]; 2.5 and 5 mM nicotinamide, 21 days post seeding
  non-NK cell fraction vs control cultures: smaller
[2]; grown with nicotinamide
  NK cell proliferation from day 14 to day 21: continue to proliferate
